Laboratory results reported in patent US20160122268A1, “PROCESS FOR SIMULTANEOUS EXTRACTION AND SEPARATION OF ESTERIFIED AND UNESTERIFIED MONOHYDROXYCAROTENOIDS” (UNIVERSITY OF MARYLAND, COLLEGE PARK, priority 2013, published 2016).

Assay: Solubility in hydrocarbon solvents (pentane or hexane), observed in Soxhlet extraction
Format: physicochemical
Conditions: boiling pentane or hexane
Text: In an alternative process, Soxhlet extraction of mono- and dihydroxycarotenoids can also be carried out to separate these carotenoids. As mentioned earlier, esterified forms of lutein and zeaxanthin are well solubilized in hydrocarbon solvents such as n-hexane and n-pentane, whereas their unesterified parent compounds, […], show a remarkable difference in their solubility behavior and remain insoluble. In fact, […] are considerably more soluble in n-pentane or n-hexane than lutein and zeaxanthin.
Similarly, a mixture of zeaxanthin and β-cryptoxanthin can be separated by Soxhlet extraction with n-pentane or n-hexane due to their differential solubility in hydrocarbon solvents.
100 mg of 1:1 mixture of (3R)-β-cryptoxanthin (13) and (3R,3′R)-zeaxanthin (5) was subjected to Soxhlet extraction and these unesterified carotenoids were extracted with boiling pentane (b.p.=36° C.) or hexane (b.p.=69° C.). […] After 4 hours, the composition of the extract was: (3R)-β-cryptoxanthin (13) (85%) and (3R,3′R)-zeaxanthin (5) (15%). In a subsequent Soxhlet extraction with pentane or hexane, (3R)-β-cryptoxanthin (13) was obtained in 98% purity.

SMILES | solubility in hydrocarbon solvents
CC1=C(/C=C/C(C)=C/C=C/C(C)=C/C=C/C=C(C)/C=C/C=C(C)/C=C/C2=C(C)C[C@@H](O)CC2(C)C)C(C)(C)C[C@H](O)C1 [compound 5, (3R,3′R)-zeaxanthin] | only sparingly soluble
CC1=C(/C=C/C(C)=C/C=C/C(C)=C/C=C/C=C(C)/C=C/C=C(C)/C=C/C2=C(C)C[C@@H](O)CC2(C)C)C(C)(C)CCC1 [compound 13, (3R)-β-cryptoxanthin] | significantly better solubility
CC(C=CC=C(C)C=CC1=C(C)CC(O)CC1(C)C)=CC=CC=C(C)C=CC=C(C)C=CC1C(C)=CCCC1(C)C [compound 9, (3R,6′R)-α-cryptoxanthin] | much greater solubility than lutein
